Where “and” joins values, the source holds several entries; their conditions need not be identical. Equal values may be shown once. Inconclusive results and toxic doses are left out. Rule for the calls: active = survival T/C of 150% or more; inactive = T/C below 125% in these data.
System: P388 leukemia ip, CD2F1 mice, survival T/C
Assay: NCI In Vivo Anticancer Drug Screen. Data for tumor model P388 Leukemia (intraperitoneal) in CD2F1 (CDF1) mice
Conditions: endpoint: median survival time, higher = longer survival
Summary of the method: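 Mice carrying the transplanted tumor received test compound or vehicle. Survival was recorded in each group, and the value is the treated-group measurement divided by that of the vehicle-treated control group.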

[1] = dose: 50.0 mg/kg/injection, schedule: Q01DX009 (ip), vehicle: saline

Measured: T/C

CCC(c1ccc(OC)cc1)C(NCC(=O)NNC(=O)CNC(c1ccc(OC)cc1)C(CC)c1ccc(OC)cc1)c1ccc(OC)cc1 (stereo not given)
inactive: dose: 200.0 mg/kg/injection, schedule: Q04DX002 (ip), vehicle: saline with Tween-80 86 % of control | dose: 400.0 mg/kg/injection, schedule: Q04DX002 (ip), vehicle: saline with Tween-80 92 % of control

CC1=C(C)C(=O)OC(C(C)(O)C2(O)CCC3(O)C4CC(Cl)C5(O)C(O)C=CC(=O)C5(C)C4CCC32C)C1 (stereo not given)
inactive: dose: 10.0 mg/kg/injection, schedule: Q01DX005 (ip), vehicle: saline + alcohol 106 % of control | dose: 20.0 mg/kg/injection, schedule: Q01DX005 (ip), vehicle: saline + alcohol 108 % of control | dose: 25.0 mg/kg/injection, schedule: Q01DX005 (ip), vehicle: saline + alcohol 104 % of control | dose: 40.0 mg/kg/injection, schedule: Q01DX005 (ip), vehicle: saline + alcohol 112 % of control | dose: 50.0 mg/kg/injection, schedule: Q01DX005 (ip), vehicle: saline + alcohol 100 % of control and 104 % of control | dose: 80.0 mg/kg/injection, schedule: Q01DX005 (ip), vehicle: saline + alcohol 117 % of control | dose: 100.0 mg/kg/injection, schedule: Q01DX005 (ip), vehicle: saline + alcohol 104 % of control (2×) and 120 % of control | dose: 200.0 mg/kg/injection, schedule: Q01DX005 (ip), vehicle: saline + alcohol 99 % of control and 109 % of control and 111 % of control

N=C(N)SCCCC(=O)O
inactive: dose: 12.5 mg/kg/injection, schedule: Q01DX009 (ip), vehicle: saline 102 % of control | dose: 25.0 mg/kg/injection, schedule: Q01DX009 (ip), vehicle: saline 120 % of control | [1] 95 % of control

CC(C)=Cn1ccccc1=O
inactive: dose: 25.0 mg/kg/injection, schedule: Q01DX001 (ip), vehicle: saline 104 % of control and 108 % of control | dose: 50.0 mg/kg/injection, schedule: Q01DX001 (ip), vehicle: saline 99 % of control and 98 % of control | dose: 100.0 mg/kg/injection, schedule: Q01DX001 (ip), vehicle: saline 120 % of control and 95 % of control and 98 % of control | dose: 200.0 mg/kg/injection, schedule: Q01DX001 (ip), vehicle: saline 94 % of control | dose: 400.0 mg/kg/injection, schedule: Q01DX001 (ip), vehicle: saline 108 % of control

N#C/C(=C\c1ccc(Cl)cc1)c1ccccc1
inactive: dose: 50.0 mg/kg/injection, schedule: Q01DX009 (ip), vehicle: saline with Tween-80 96 % of control | [1] 100 % of control | dose: 100.0 mg/kg/injection, schedule: Q01DX009 (ip), vehicle: saline with Tween-80 95 % of control | dose: 100.0 mg/kg/injection, schedule: Q01DX009 (ip), vehicle: saline 98 % of control and 96 % of control | dose: 200.0 mg/kg/injection, schedule: Q01DX009 (ip), vehicle: saline with Tween-80 98 % of control | dose: 200.0 mg/kg/injection, schedule: Q01DX009 (ip), vehicle: saline 99 % of control and 92 % of control | dose: 400.0 mg/kg/injection, schedule: Q01DX009 (ip), vehicle: saline with Tween-80 100 % of control | dose: 400.0 mg/kg/injection, schedule: Q01DX009 (ip), vehicle: saline 90 % of control and 91 % of control

CC(=O)NC(=O)NC(C)=O
inactive: dose: 100.0 mg/kg/injection, schedule: Q01DX001 (ip), vehicle: methylcellulose (MC) 100 % of control | dose: 200.0 mg/kg/injection, schedule: Q01DX001 (ip), vehicle: methylcellulose (MC) 108 % of control | dose: 400.0 mg/kg/injection, schedule: Q01DX001 (ip), vehicle: methylcellulose (MC) 100 % of control

COC(=O)/C(O)=C(/O)C(=O)OC
inactive: dose: 50.0 mg/kg/injection, schedule: Q01DX005 (ip), vehicle: saline with Tween-80 99 % of control | dose: 100.0 mg/kg/injection, schedule: Q01DX005 (ip), vehicle: saline with Tween-80 100 % of control | dose: 200.0 mg/kg/injection, schedule: Q01DX005 (ip), vehicle: saline with Tween-80 99 % of control

Cc1nc2ccccc2[n]1[Sn]([CH3])([CH3])[n]1c(C)nc2ccccc21
inactive: dose: 12.5 mg/kg/injection, schedule: Q01DX005 (ip), vehicle: Klucel (hydroxypropylcellulose) (HPC) 118 % of control | dose: 25.0 mg/kg/injection, schedule: Q01DX005 (ip), vehicle: Klucel (hydroxypropylcellulose) (HPC) 118 % of control | dose: 50.0 mg/kg/injection, schedule: Q01DX005 (ip), vehicle: Klucel (hydroxypropylcellulose) (HPC) 112 % of control and 118 % of control

O=c1n2ccccc2nc2nc3ccccc3n12
inactive: dose: 60.0 mg/kg/injection, schedule: Q01DX005 (ip), vehicle: saline with Tween-80 86 % of control | dose: 120.0 mg/kg/injection, schedule: Q01DX005 (ip), vehicle: saline with Tween-80 86 % of control

COc1ccccc1C1NC(c2ccccc2OC)C2CCCC1NC2=O (stereo not given)
inactive: dose: 100.0 mg/kg/injection, schedule: Q04DX003 (ip), vehicle: suspension in saline 98 % of control | dose: 200.0 mg/kg/injection, schedule: Q04DX003 (ip), vehicle: suspension in saline 98 % of control | dose: 400.0 mg/kg/injection, schedule: Q04DX003 (ip), vehicle: suspension in saline 98 % of control
